Source: PMC5020691, “Cell wall degradation is required for normal starch mobilisation in barley endosperm” (Scientific Reports, 2016)
Values belong to the compound of their own block, whether it stands above or below them.

Experiments:
[1] = target: AXAH activity of barley endosperm (arabinoxylan arabinofuranohydrolase, endogenous) (barley (endogenous in endosperm of cv NFC Tipple)); test: SEC; endosperm extracts of seedlings at 4-10 dpi on a Sephacryl size exclusion column in 50 mM Tris/HCl pH 7.5, 150 mM NaCl; fractions assayed for enzyme activity; size estimated against protein standards
[2] = target: T1, Agl97 (maltase) (Hordeum vulgare, UniProt Q9LLY2); test: inhibition of pNPG hydrolysis, absorbance […] nm; type: biochemical; details: 0.01-100 µM LAB; 0.6 mM pNPG, 50 mM sodium acetate pH 4.5, 5 mM CaCl2, 37 °C
T1 construct: purified recombinant
T1 sequence (Q9LLY2 24-879): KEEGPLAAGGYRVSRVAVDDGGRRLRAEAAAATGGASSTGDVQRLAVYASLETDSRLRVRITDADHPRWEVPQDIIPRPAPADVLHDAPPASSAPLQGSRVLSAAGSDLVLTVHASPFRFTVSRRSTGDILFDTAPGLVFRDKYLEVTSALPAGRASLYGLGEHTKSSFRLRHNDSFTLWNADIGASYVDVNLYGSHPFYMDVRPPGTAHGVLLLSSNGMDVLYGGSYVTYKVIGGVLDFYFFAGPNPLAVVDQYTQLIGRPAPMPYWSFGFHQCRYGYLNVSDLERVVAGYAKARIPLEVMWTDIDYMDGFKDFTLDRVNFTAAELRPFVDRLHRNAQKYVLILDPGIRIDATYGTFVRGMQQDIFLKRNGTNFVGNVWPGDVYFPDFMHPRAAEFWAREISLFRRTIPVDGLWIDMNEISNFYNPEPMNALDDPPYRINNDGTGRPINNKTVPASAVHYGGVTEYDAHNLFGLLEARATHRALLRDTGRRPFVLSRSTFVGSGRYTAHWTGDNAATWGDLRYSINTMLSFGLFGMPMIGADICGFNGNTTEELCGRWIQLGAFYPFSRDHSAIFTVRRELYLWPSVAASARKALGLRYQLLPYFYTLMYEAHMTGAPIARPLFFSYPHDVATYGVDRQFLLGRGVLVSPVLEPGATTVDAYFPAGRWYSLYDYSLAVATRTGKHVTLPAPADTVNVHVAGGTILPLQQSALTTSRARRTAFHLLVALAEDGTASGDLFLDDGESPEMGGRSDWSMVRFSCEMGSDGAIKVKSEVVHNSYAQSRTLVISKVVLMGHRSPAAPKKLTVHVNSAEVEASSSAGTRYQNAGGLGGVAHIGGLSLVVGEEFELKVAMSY

[3] = target: T1, Agl97 (maltase); test: 4-nitrophenol release, absorbance […] nm; type: biochemical; details: 0.6 mM, 50 mM sodium acetate pH 4.5, 5 mM CaCl2, 37 °C

stoichiometry N [1]: 2
Compound: AXAH activity of barley endosperm (arabinoxylan arabinofuranohydrolase, endogenous) (enzyme)

Compound: OC[C@@H]1NC[C@H](O)[C@H]1O [LAB, 1,4-dideoxy-1,4-imino-L-arabinitol]
% inhibition [2]: LAB inhibited the activity of purified recombinant maltase (Agl97)

Compound: O=[N+]([O-])c1ccc(O[C@H]2O[C@H](CO)[C@@H](O)[C@H](O)[C@H]2O)cc1 [4-nitrophenyl α-D-glucopyranoside]
4-nitrophenol release, absorbance 405 nm [3]: Purified recombinant Agl97 was assayed with pNPG
